In one assay the target is T1, Coagulation factor XII (Homo sapiens, UniProt P00748).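 Also: activated factor XIIa alpha cleaving a fluorogenic AMC peptide substrate; inhibitor potency from loss of enzyme activity.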
T1 sequence (P00748 whole entry): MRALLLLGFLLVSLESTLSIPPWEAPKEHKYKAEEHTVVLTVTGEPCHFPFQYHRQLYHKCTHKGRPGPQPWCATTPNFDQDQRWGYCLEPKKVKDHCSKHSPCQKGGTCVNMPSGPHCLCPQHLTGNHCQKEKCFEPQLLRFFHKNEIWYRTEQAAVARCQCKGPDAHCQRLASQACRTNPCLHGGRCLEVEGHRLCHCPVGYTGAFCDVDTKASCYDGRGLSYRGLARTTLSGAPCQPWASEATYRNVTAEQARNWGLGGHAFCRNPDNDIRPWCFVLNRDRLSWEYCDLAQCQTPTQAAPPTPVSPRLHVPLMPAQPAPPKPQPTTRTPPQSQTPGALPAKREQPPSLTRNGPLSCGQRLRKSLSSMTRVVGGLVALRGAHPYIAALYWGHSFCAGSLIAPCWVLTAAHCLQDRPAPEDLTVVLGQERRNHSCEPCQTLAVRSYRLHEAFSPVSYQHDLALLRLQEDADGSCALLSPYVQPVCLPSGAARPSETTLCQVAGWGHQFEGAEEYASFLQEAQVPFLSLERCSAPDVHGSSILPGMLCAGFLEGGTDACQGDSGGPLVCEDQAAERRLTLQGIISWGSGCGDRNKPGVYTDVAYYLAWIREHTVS
Format: functional.

Assay [1] has as its target T2, Calpain-2 catalytic subunit (Sus scrofa, UniProt P43367).
T2 sequence (P43367 whole entry): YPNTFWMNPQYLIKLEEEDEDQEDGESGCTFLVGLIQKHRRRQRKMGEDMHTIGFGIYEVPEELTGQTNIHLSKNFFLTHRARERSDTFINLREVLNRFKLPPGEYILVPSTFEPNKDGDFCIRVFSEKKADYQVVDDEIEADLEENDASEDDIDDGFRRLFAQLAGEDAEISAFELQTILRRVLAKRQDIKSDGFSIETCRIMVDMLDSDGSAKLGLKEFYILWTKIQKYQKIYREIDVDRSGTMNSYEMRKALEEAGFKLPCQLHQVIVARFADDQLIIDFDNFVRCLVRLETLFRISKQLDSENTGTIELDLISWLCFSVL
Put plainly: pig calpain II inhibitor potency, dose response, biochemical, fluorogenic peptide substrate (AID 1420). Format: functional.

In assay [2] the target is T3, Replicative DNA helicase DnaB (Mycobacterium tuberculosis, UniProt P9WMR3).
T3 sequence (P9WMR3 whole entry): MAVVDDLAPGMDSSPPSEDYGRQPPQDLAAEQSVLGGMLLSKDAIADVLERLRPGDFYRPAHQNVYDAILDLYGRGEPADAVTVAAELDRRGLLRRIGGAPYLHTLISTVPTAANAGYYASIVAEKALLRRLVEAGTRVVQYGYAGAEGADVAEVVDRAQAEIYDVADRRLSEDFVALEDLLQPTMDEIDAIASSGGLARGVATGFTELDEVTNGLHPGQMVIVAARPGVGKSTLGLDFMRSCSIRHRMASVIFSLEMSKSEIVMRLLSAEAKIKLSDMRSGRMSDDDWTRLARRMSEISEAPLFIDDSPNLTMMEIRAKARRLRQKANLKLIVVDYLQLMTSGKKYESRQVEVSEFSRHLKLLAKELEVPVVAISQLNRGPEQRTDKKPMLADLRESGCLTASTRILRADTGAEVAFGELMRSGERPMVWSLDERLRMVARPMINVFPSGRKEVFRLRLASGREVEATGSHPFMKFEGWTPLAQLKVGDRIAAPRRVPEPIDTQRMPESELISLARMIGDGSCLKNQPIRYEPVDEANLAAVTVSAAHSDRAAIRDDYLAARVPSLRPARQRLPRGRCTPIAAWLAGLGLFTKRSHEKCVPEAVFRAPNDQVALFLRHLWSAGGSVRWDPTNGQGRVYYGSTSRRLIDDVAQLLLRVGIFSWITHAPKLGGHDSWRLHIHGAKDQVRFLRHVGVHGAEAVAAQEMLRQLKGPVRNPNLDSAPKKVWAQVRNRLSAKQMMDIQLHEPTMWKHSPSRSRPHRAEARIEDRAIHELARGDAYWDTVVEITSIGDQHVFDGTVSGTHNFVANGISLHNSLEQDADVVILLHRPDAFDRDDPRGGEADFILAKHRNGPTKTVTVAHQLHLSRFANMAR
Put plainly: DnaB intein splicing inhibitors, dose response, biochemical, cell-free fluorescence (AID 449749). Format: functional.

The target of another assay is T4, Protein RecA (Mycobacterium tuberculosis, UniProt P9WHJ3).
T4 sequence (P9WHJ3 whole entry): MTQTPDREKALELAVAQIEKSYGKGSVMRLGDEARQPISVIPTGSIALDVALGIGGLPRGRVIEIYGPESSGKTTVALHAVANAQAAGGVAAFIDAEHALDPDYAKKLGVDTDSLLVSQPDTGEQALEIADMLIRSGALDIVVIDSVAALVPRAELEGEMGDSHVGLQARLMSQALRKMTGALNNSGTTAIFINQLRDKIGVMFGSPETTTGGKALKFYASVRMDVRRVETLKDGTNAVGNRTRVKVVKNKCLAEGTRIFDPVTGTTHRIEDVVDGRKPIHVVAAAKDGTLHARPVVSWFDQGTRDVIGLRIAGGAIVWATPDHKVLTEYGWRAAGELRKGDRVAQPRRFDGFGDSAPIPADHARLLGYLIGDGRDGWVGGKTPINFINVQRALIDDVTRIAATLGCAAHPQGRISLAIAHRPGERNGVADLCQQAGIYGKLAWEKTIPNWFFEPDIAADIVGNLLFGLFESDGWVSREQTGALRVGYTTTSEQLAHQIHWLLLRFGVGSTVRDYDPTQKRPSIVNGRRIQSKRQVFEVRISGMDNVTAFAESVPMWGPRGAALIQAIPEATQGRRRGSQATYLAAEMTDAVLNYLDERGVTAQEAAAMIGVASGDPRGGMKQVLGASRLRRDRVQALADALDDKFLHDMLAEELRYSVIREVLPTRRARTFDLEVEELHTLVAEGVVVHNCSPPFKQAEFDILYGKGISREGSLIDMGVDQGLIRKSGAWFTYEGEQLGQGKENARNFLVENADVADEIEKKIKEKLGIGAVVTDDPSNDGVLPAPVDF
Put plainly: Fluorescence Cell-Free Homogeneous Dose Retest to Identify Inhibitors of RecA-Intein Splicing Activity. [Related pubchem assays (depositor defined):AID2097, AID2223, AID489010, AID492950]. The assay is classed as functional.

Another assay has as its target Cytochrome P450 2D6 (Homo sapiens, UniProt P10635).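 Also: CYP2D6 member of a cytochrome P450 panel assay.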
The next assay deals with Cytochrome P450 2C9 (Homo sapiens, UniProt P11712).
Assay [3] in a line: A549 cell cytotoxicity, dose response, cytotoxicity control, plate reader, cherry-pick, antagonist series (AID 743412). The assay is classed as functional, cell-based.
Assay [4] can be described thus: HepG2 cell cytotoxicity, dose response, cytotoxicity control, plate reader, cherry-pick, antagonist series (AID 743416). The assay is classed as functional, cell-based.
Assay [5] in a line: LGR2 antagonists, dose response, cell-based, HEK293, CRE-luciferase reporter, cherry pick, set 2 (AID 743343).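 Also: transfected cells were stimulated with diluted bursicon conditioned medium after compound addition.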 The assay is classed as functional.
Assay [6] can be described thus: MC4R antagonists, dose response, counter-screen for LGR2 antagonist project, cell-based, plate reader, cherry pick (AID 743444).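 Also: transfected HEK 293 cells stimulated with alpha-MSH peptide; potency of inhibitors of the alpha-MSH evoked signal.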 Format: functional.
Assay [7] deals with Eukaryotic translation initiation factor 4E (Mus musculus, UniProt P63073). Put plainly: eIF4E–eIF4G protein interaction inhibitors, dose response, biochemical, TR-FRET (AID 855).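 Also: potency for disrupting eIF4E binding to eIF4GI seen as loss of FRET.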 Format: functional.
Assay [8] can be described thus: HEp-2 cell cytotoxicity, dose response, cytotoxicity control for RSV inhibitor project, HTS (AID 2410). Format: functional. Conditions: human respiratory syncytial virus.
Assay [9] addresses T5, Heat shock factor protein 1 (Mus musculus, UniProt P38532).
T5 sequence (P38532 whole entry): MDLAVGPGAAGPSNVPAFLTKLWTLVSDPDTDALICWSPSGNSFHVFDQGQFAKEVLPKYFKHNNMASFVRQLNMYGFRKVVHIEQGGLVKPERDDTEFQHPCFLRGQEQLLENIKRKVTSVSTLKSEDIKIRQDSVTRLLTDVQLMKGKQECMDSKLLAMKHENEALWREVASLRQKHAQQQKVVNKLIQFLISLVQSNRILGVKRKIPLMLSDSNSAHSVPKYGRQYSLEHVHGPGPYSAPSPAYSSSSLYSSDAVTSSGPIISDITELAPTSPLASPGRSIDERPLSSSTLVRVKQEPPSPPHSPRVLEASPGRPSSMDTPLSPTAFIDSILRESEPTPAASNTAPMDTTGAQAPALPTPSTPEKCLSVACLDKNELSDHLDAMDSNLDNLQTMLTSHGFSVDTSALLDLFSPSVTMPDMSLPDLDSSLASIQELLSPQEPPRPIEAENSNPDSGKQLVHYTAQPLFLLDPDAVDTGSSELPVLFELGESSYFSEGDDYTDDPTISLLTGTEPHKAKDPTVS
The experiment in a line: inhibition of MG132-induced HSE-luciferase signal, confirmation, cell-based, NIH3T3, luminescence, dose retest (AID 2382).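 Also: NIH3T3 fibroblasts with HSF1-driven luciferase reporter stressed by proteasome inhibitor MG132; luminescence from HSF1-driven luciferase expression after 8 hours of MG132 stress.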 Format: functional.

In assay [10] the target is T6, Rac GTPase-activating protein 1 (Homo sapiens, UniProt Q9H0H5).
T6 sequence (Q9H0H5 whole entry): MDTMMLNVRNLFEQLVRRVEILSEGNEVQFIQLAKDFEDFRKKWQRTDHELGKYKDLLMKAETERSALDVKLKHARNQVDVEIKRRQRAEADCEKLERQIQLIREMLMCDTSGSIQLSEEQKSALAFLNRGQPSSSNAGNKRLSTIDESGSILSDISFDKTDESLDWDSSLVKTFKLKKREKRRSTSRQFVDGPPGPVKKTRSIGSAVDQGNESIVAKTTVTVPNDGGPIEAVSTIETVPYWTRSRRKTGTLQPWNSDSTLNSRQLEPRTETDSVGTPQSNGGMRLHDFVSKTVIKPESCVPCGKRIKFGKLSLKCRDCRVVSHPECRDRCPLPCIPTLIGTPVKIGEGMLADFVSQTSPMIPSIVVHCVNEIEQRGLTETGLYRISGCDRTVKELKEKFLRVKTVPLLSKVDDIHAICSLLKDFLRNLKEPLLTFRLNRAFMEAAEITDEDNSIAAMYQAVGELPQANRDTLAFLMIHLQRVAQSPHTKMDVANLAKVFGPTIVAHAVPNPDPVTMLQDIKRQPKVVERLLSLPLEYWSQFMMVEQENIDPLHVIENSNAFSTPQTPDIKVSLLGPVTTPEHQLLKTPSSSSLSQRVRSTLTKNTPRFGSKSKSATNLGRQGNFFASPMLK
The experiment in a line: MgcRacGAP GTPase-activating activity inhibitors, confirmation, biochemical, ADP Hunter fluorescence, primary and confirmatory (AID 624330). The assay is classed as functional.

The test system of another assay is INS1. Put plainly: beta cell apoptosis inhibitors, cytokine rescue, dose response, luminescence, retest (AID 449756).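 Also: cell death triggered by IL-1 beta plus TNF-alpha plus IFN-gamma mixture; protective hits raise ATP signal compared with cytokine alone wells.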 Format: functional, cell-based. Conditions: Rattus norvegicus.
Assay [11] in a line: P. falciparum Dd2 growth inhibitors, dose response, SYBR Green, cherry-picked samples (AID 1159567). The assay is classed as functional, cell-based.

Structures are written as SMILES. Calls of active or inactive are those of the source.

Experimental findings from ChEMBL document CHEMBL1201862, “PubChem BioAssay data set” (2004) are described below.

Sequence of Eukaryotic translation initiation factor 4E (P63073 whole entry): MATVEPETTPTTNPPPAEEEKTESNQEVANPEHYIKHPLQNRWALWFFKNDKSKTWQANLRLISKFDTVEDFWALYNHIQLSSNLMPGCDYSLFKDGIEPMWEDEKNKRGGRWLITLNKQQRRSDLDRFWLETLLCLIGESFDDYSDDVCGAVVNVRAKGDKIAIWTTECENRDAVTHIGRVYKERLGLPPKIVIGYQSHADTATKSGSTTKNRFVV
Sequence of Cytochrome P450 2C9 (P11712 whole entry): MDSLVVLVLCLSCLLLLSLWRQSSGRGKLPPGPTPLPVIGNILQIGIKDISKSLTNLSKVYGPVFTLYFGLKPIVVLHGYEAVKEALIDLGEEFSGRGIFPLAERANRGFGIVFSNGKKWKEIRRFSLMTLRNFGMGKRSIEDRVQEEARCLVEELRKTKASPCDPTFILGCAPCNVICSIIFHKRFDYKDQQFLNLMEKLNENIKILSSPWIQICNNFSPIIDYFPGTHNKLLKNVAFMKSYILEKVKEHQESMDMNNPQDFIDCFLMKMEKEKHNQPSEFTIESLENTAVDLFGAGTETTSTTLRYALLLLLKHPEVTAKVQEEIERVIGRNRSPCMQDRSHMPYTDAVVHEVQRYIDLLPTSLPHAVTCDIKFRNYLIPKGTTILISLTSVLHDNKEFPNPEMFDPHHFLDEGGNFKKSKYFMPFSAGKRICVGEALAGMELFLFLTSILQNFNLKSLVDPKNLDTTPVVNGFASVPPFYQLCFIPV
Sequence of Cytochrome P450 2D6 (P10635 whole entry): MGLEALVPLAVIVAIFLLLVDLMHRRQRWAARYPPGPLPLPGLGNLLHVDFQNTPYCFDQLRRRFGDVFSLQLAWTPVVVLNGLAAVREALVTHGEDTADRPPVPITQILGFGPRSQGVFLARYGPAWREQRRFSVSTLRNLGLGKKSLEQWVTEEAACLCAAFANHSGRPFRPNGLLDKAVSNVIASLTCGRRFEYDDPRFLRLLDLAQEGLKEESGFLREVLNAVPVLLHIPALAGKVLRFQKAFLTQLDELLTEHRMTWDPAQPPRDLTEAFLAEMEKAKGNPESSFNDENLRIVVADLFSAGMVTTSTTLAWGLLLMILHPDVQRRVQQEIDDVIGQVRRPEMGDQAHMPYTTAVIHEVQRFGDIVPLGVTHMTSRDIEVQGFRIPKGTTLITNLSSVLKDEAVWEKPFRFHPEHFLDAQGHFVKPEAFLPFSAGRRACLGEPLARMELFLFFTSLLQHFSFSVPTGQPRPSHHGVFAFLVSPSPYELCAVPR

In the case of `C=CCSc1nc(C)c(CC=C)c(O)n1`, on Coagulation factor XII, the IC50 is > 50 µM (inactive).

Turning to `CCOc1ccccc1Nc1nnc(Cc2ccccc2Cl)c(O)n1`, the IC50 in assay [1] is given as > 50 µM (not active). For the same compound, the AC50 in [2] was > 380 µM (inactive). Also, the EC50 at Protein RecA was 21 µM (active).

With `CCN(CC)S(=O)(=O)c1ccc2oc(C(=O)NCc3ccc(C)cc3)c(C)c2c1`, the IC50 in [1] is 26.3 µM (not active).

Take `Cc1c(=O)n(OCc2ccccc2F)c2ccccc2[n+]1[O-]`: the IC50 in [1] is reported as 25.6 µM (not active).

In the case of `CCCCc1nc(O)c(C#N)c2c1CCCC2`, on Coagulation factor XII, the IC50 is > 50 µM (inactive). Moreover, the AC50 was 35.5 µM (inconclusive) at Cytochrome P450 2D6 and 0.251 µM (inconclusive) at Cytochrome P450 2C9.

With `Cc1ccoc1C(=O)Nc1ccc2ccccc2c1`, the AC50 in [3] is > 52 µM (inactive); in [4], 40 µM (active); in assay [5] it was 7.48 µM (active); in assay [6], 9.34 µM (active).

Regarding `CSc1nsc(SCC(=O)N2CCc3ccccc32)n1`, in assay [7], the IC50 was > 64 µM (inactive).

For the compound `CCOC(=O)Cn1c(=O)oc2cc(S(=O)(=O)NCc3cccs3)ccc21`, the IC50 in [7] was > 64 µM (inactive).

Consider `COC(=O)CC(NS(=O)(=O)c1cccs1)c1cccc2ccccc12` (stereo unspecified), for which the concentration for half-maximal inhibition (IC50) in [1] was > 50 µM (not active).

For the compound `CCOC(=O)c1c(N)sc2c(O)c(Br)ccc12`, in [8], the CC50 was 47 µM (active). In addition, in assay [9], the EC50 is recorded as > 195 µM (not active). In addition, the IC50 in [7] was > 64 µM (inactive); in [10], 58.6 µM (active).

Consider `Cc1cc(C)cc(NC(=O)c2ccccc2CC[N+](=O)[O-])c1`, for which the IC50 in assay [7] is > 64 µM (inactive).

Regarding `COc1cccc(Cn2c(NCc3ccco3)nc3c2c(=O)n(C)c(=O)n3C)c1`, the IC50 on Coagulation factor XII is > 50 µM (inactive). Also, the AC50 in the assay with INS1 was 3.85 µM (active).

Take `Cc1ccc(-c2nn(-c3ccccc3)cc2/C=N/NS(=O)(=O)c2ccccc2)cc1`: the IC50 on Coagulation factor XII was > 50 µM (inactive).

On to `CCCNC(=O)Nc1ccc2c(c1)C(=O)N(C)C[C@H](OC)[C@H](C)CN(Cc1ccc(-c3ccccn3)cc1)[C@@H](C)CO2`, for which the AC50 was 26.4 µM (active) in assay [3], 44 µM (active) in assay [4], 50.8 µM (active) in [5] and 55.8 µM (active) in assay [6].

As to `C/C(=N\NC(=O)CCn1nnc2ccccc21)c1cccs1`, the IC50 at Coagulation factor XII was > 50 µM (inactive).

Regarding `COc1cccc(-c2cn(CC[C@@H]3CC[C@@H](NS(=O)(=O)c4ccccc4Cl)[C@H](CO)O3)nn2)c1`, the AC50 in assay [11] is 5.86 µM (active).

In the case of `Cc1ccccc1S(=O)(=O)N1[C@H](C#N)[C@@H](c2ccc(C#CC3CC3)cc2)[C@@H]1CO`, in assay [11], the AC50 was 4.69 µM (active).
